Results published in patent publication US8969542B2, “HPV polyepitope constructs and uses thereof” (priority 2007, dated 2015).
pIC50: −log10 of the molar value. Where no end group is shown, it is not given here.

Assays:
Assay in all cases: HLA class I competition binding assay using soluble HLA
[1] = target: HLA A2902 (Homo sapiens, UniProt P04439, A270S/D101N/D185E/E176V/E277Q/E87Q/F33T/G231S/H175R/I121M/I218V/I322F/K168Q/L300P/L318F/M331R/P208A/P217A/Q86L/T323A/T345S/V100A/V358M)
[2] = target: HLA A3002 (Homo sapiens, UniProt P04439, D101N/D140H/D185E/E176R/F33S/G80R/H175R/K168Q/Q94H/R138E/R41S/V100E)
[3] = target: HLA A2601 (Homo sapiens, UniProt P04439, A114D/A173T/A270S/D101N/D185E/E277Q/E87N/F33Y/G231S/I121R/I218V/K168Q/L180W/L300P/L318F/P208A/P217A/Q86R/Q94H/R138Q/S129P/T187R/T323A/T345S/V100A/V358M)
[4] = target: HLA A3101 (Homo sapiens, UniProt P04439, A270S/D185E/E176V/E277Q/F33T/G231S/G80R/H175R/I121M/I218V/I322F/K168Q/L300P/L318F/M331R/P217A/Q94H/R138Q/T323A/T345S/T97I/V358M)
[5] = target: HLA A6801 (Homo sapiens, UniProt P04439, A269V/D185E/E176V/E277Q/E87N/F33Y/G231S/I121M/I166T/I218V/L180W/L300P/L318F/N151K/P208A/P217A/Q86R/R169H/T345S)
[6] = target: HLA A1101 (Homo sapiens, UniProt P04439, A114D/D185E/E176A/F33Y/L180Q/S129P/T187R)
[7] = target: HLA A3301 (Homo sapiens, UniProt P04439, A270S/D185E/E176V/E277Q/E87N/F33T/G231S/H175R/I121M/I218V/I322F/K168Q/K210R/L300P/L318F/M331R/P217A/Q86R/Q94H/R138Q/T323A/T345S/T97I/V358M/Y195H)
[8] = target: T1, HLA A0301 (Homo sapiens, UniProt P04439)
T1 construct: endogenous in cells

[9] = target: HLA A0202 (Homo sapiens, UniProt P04439, D140Y/D185E/D98H/E176V/E277Q/G131W/G231S/I119L/I121R/I166T/I218V/L180W/L300P/L318F/N151K/N90K/P208A/P217A/Q67R/Q86G/Q94H/R138H/R169H/T345S)
[10] = target: HLA A0206 (Homo sapiens, UniProt P04439, D140Y/D185E/D98H/E176V/E277Q/F33Y/G131W/G231S/I119V/I121R/I166T/I218V/L300P/L318F/N151K/N90K/P208A/P217A/Q86G/Q94H/R138H/R169H/T345S)
[11] = target: HLA A6802 (Homo sapiens, UniProt P04439, A269V/D140Y/D185E/E176V/E277Q/E87N/F33Y/G231S/I121R/I166T/I218V/L180W/L300P/L318F/N151K/P208A/P217A/Q86R/R138H/R169H/S129P/T345S/V36M)
[12] = target: HLA A0203 (Homo sapiens, UniProt P04439, A173T/D140Y/D185E/D98H/E277Q/G131W/G231S/I119V/I121R/I166T/I218V/L180W/L300P/L318F/N151K/N90K/P208A/P217A/Q86G/Q94H/R138H/R169H/T345S)
[13] = target: HLA A0201 (Homo sapiens, UniProt P04439, D140Y/D185E/D98H/E176V/E277Q/G131W/G231S/I119V/I121R/I166T/I218V/L300P/L318F/N151K/N90K/P208A/P217A/Q86G/Q94H/R138H/R169H/T345S)

In the case of `CC(C)C[C@H](NC(=O)CNC(=O)[C@@H](NC(=O)[C@H](CC(N)=O)NC(=O)[C@@H](NC(=O)[C@H](CC(C)C)NC(=O)[C@H](CCCCN)NC(=O)[C@H](CCC(=O)O)NC(=O)[C@H](CC(C)C)NC(=O)[C@@H](N)[C@@H](C)O)[C@@H](C)O)[C@@H](C)O)C(=O)N[C@@H](Cc1ccc(O)cc1)C(=O)O` [compound 26], the pIC50 [1] was 5.62, the pIC50 [2] was 6.32 and the pIC50 [3] was 6.58.
`CC[C@H](C)[C@H](N)C(=O)N[C@@H](CO)C(=O)N[C@@H](Cc1ccccc1)C(=O)N[C@@H](C)C(=O)NCC(=O)N[C@H](C(=O)N[C@H](C(=O)N[C@H](C(=O)N[C@@H](CCCCN)C(=O)O)[C@@H](C)O)C(C)C)[C@@H](C)CC` [compound 57] gave a pIC50 [4] of 6.94, a pIC50 [5] of 7.80 and a pIC50 [6] of 8.80.
For AATKYPLLK [compound 17], the pIC50 [4] was less than 4.70, the pIC50 [5] was less than 4.70 and the pIC50 [7] was less than 4.70. For the same compound, the pIC50 [6] was 7.70.
ATCVSHRGLY [compound 25] was tested, and the pIC50 [3] was 6.19.
ATTPIIHLK [compound 58] showed a pIC50 [4] of 7.47, a pIC50 [5] of 8.60 and a pIC50 [8] of 8.00. For the same compound, the pIC50 [7] was less than 4.70 and the pIC50 [6] was 8.92.
For AVMCRHYKR [compound 78], the pIC50 [5] was 7.54, the pIC50 [8] was 6.51 and the pIC50 [6] was 7.42.
For CLYLHIQSL [compound 6], the pIC50 [9] was 7.35, the pIC50 [10] was 7.00 and the pIC50 [11] was 5.75.
With ELDPVDLLCY [compound 71] the pIC50 [2] was less than 4.70 and the pIC50 [3] was 5.68.
For FLFTDLTIV [compound 53], the pIC50 [9] was 8.89, the pIC50 [10] was 7.70 and the pIC50 [11] was 5.72. The pIC50 [12] was 8.46.
Compound FVVYRDSIPK [compound 36] has a pIC50 [4] of 8.10, a pIC50 [5] of 6.75 and a pIC50 [8] of 5.46. For the same compound, the pIC50 [7] was 6.33 and the pIC50 [6] was 5.60.
GTLGIVCPV [compound 11] showed a pIC50 [13] of 7.70.
ILYAHIQCL [compound 27] was tested, and the pIC50 [9] was 8.07, the pIC50 [10] was 6.63 and the pIC50 [11] was less than 4.70.
KLLEKLLCI [compound 49] gave a pIC50 [12] of 8.62.
KLLSKLLCV [compound 7] showed a pIC50 [13] of 7.51.
KLTNKGICDL [compound 54] showed a pIC50 [9] of 6.36, a pIC50 [10] of 6.32 and a pIC50 [11] of less than 4.70. It also gave a pIC50 [12] of 6.23.
With KLTNTGLYNV [compound 31] the pIC50 [9] was 8.54, the pIC50 [10] was 7.08 and the pIC50 [11] was 6.16.
Work on KVSEFRWYRY [compound 59] yielded a pIC50 [4] of 8.52, a pIC50 [5] of 6.72 and a pIC50 [8] of 6.67. The pIC50 [7] was 6.47.
With LQDKILDHY [compound 67] the pIC50 [2] was 6.08 and the pIC50 [3] was 5.30.
LSQMVQWAY [compound 1] showed a pIC50 [2] of 9.03 and a pIC50 [3] of 5.19.
LTDVSIACVY [compound 69] showed a pIC50 [3] of 5.09.
In the case of QTEPDTSNY [compound 48], the pIC50 [3] was less than 4.70.
With SLVFLLCFSV [compound 74] the pIC50 [13] was 8.07 and the pIC50 [11] was 7.70.
Compound STAAALYWYR [compound 56] has a pIC50 [4] of 8.25, a pIC50 [5] of 7.92 and a pIC50 [8] of 6.70. The pIC50 [7] was 7.33 and the pIC50 [6] was 8.00.
In the case of STWHWTGCNK [compound 80], the pIC50 [7] was 6.37 and the pIC50 [6] was 8.55.
For SVICFVNSK [compound 16], the pIC50 [5] was 8.27, the pIC50 [7] was 7.29 and the pIC50 [6] was 8.66.
For SVYGETLEK [compound 83], the pIC50 [4] was 5.19, the pIC50 [5] was 8.14 and the pIC50 [6] was 8.02.
Work on SVYGTTLER [compound 60] yielded a pIC50 [4] of 7.12, a pIC50 [5] of 8.40 and a pIC50 [8] of 7.66. The pIC50 [7] was 6.07 and the pIC50 [6] was 8.15.
TLQEIVLHV [compound 77] was tested, and the pIC50 [9] was 7.52, the pIC50 [11] was 5.61 and the pIC50 [12] was 8.29.
Compound TLYAHIQCL [compound 72] has a pIC50 [13] of 7.47.
VVLLLVRYK [compound 12] was tested, and the pIC50 [4] was 10.00, the pIC50 [5] was 7.12 and the pIC50 [8] was 8.20. For the same compound, the pIC50 [7] was 8.21 and the pIC50 [6] was 8.39.
For YQFAFKDLCV [compound 76], the pIC50 [9] was 8.89, the pIC50 [10] was 8.00 and the pIC50 [11] was 5.43. For the same compound, the pIC50 [12] was 8.38.
YVVWDSIYYI [compound 73] showed a pIC50 [10] of 7.70, a pIC50 [11] of 7.52 and a pIC50 [12] of 6.61.
